According to ChEMBL document CHEMBL1201862, “PubChem BioAssay data set” (2004):
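All cell lines were grown in 96-well plates and treated with compound for 48 hours. GI50: concentration for 50% inhibition of growth.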 Calls of active or inactive are those of the source. Rule as the data show it: active = GI50 up to about 1.1 µM and inactive = higher.

How the values were obtained:
Assay in all cases: inhibition of tumour cell growth, NCI panel, 48 h
786-0 = tested on: 786-0
A498 = tested on: A498
A549 = tested on: A549
ACHN = tested on: ACHN
CAKI-1 = tested on: CAKI-1
CCRF-CEM = tested on: CCRF-CEM
COLO 205 = tested on: COLO 205
DLD-1 = tested on: DLD-1
DMS-114 = tested on: DMS-114
DMS-273 = tested on: DMS-273
EKVX = tested on: EKVX
HCC 2998 = tested on: HCC 2998
HCT-116 = tested on: HCT-116
HCT-15 = tested on: HCT-15
HL-60 = tested on: HL-60
HOP-18 = tested on: HOP-18
HOP-62 = tested on: HOP-62
HOP-92 = tested on: HOP-92
HT-29 = tested on: HT-29
IGROV-1 = tested on: IGROV-1
K562 = tested on: K562
KM-20L2 = tested on: KM-20L2
KM12 = tested on: KM12
LOX IMVI = tested on: LOX IMVI
LXFL 529 = tested on: LXFL 529
M14 = tested on: M14
M19-MEL = tested on: M19-MEL
MOLT-4 = tested on: MOLT-4
Malme-3M = tested on: Malme-3M
NCI-H226 = tested on: NCI-H226
NCI-H23 = tested on: NCI-H23
NCI-H460 = tested on: NCI-H460
NCI-H522 = tested on: NCI-H522
OVCAR-3 = tested on: OVCAR-3
OVCAR-4 = tested on: OVCAR-4
OVCAR-5 = tested on: OVCAR-5
OVCAR-8 = tested on: OVCAR-8
RPMI-8226 = tested on: RPMI-8226
RXF 393 = tested on: RXF 393
RXF 631 = tested on: RXF 631
SF-268 = tested on: SF-268
SF-295 = tested on: SF-295
SF-539 = tested on: SF-539
SK-MEL-28 = tested on: SK-MEL-28
SK-MEL-2 = tested on: SK-MEL-2
SK-MEL-5 = tested on: SK-MEL-5
SK-OV-3 = tested on: SK-OV-3
SN12C = tested on: SN12C
SNB-19 = tested on: SNB-19
SNB-75 = tested on: SNB-75
SNB-78 = tested on: SNB-78
SR = tested on: SR
SW-620 = tested on: SW-620
TK-10 = tested on: TK-10
U-251 = tested on: U-251
UACC-257 = tested on: UACC-257
UACC-62 = tested on: UACC-62
UO-31 = tested on: UO-31
XF498 = tested on: XF498

Measured: GI50

CCC1(OC(C)=O)C(=O)OCc2c1cc1n(c2=O)Cc2cc3ccccc3nc2-1 (centres undefined)
active: 786-0 564 nM | ACHN 455 nM | CAKI-1 1070 nM | CCRF-CEM 163 nM | DMS-114 611 nM | DMS-273 388 nM | HL-60 421 nM | HOP-62 316 nM | LOX IMVI 1010 nM | M14 948 nM | MOLT-4 264 nM | NCI-H226 869 nM | NCI-H23 966 nM | NCI-H460 262 nM | SF-268 528 nM | SF-295 778 nM | SF-539 568 nM | SN12C 638 nM | SNB-19 962 nM | SR 276 nM | U-251 289 nM | UACC-62 251 nM | UO-31 1000 nM
12300 nM: HCT-15
inactive: A498 2550 nM | A549 1160 nM | COLO 205 35100 nM | DLD-1 > 66400 nM | EKVX 12800 nM | HCC 2998 4420 nM | HCT-116 2030 nM | HOP-18 > 34800 nM | HOP-92 24800 nM | HT-29 3630 nM | IGROV-1 7520 nM | K562 3100 nM | KM-20L2 7010 nM | KM12 7600 nM | LXFL 529 15000 nM | M19-MEL 2480 nM | Malme-3M 3440 nM | NCI-H522 1190 nM | OVCAR-3 10700 nM | OVCAR-4 41400 nM | OVCAR-5 2370 nM | OVCAR-8 2450 nM | RPMI-8226 4200 nM | RXF 393 2640 nM | RXF 631 3850 nM | SK-MEL-28 14000 nM | SK-MEL-2 > 80000 nM | SK-MEL-5 1230 nM | SK-OV-3 2280 nM | SNB-75 1480 nM | SNB-78 > 40900 nM | SW-620 5830 nM | TK-10 > 100000 nM | UACC-257 4450 nM | XF498 17900 nM
